The values below come from ChEMBL document CHEMBL5055655, “Design, synthesis and bioactivity evaluation of fisetin derivatives as potential anti-inflammatory agents against LPS-induced acute lung injury” (Bioorg Med Chem, 2021).

Structures are written as SMILES. Active and inactive are the calls of the source. The rule behind the calls is not given here.

In series [1] the test system is J774.A1. The experiment in a line: Antiinflammatory activity in mouse J774.A1 cells assessed as inhibition of LPS-induced TNF-alpha secretion at 10 uM incubated for 2 followed by LPS stimulation and measured after 22 hrs by ELISA relative to control. It counts as functional. The following applies: for Activity: time 24.0 hrs. (In an ELISA, binding on a coated surface is turned into a signal by an enzyme label.)

For series [2], the system named is J774.A1. The experiment in a line: Antiinflammatory activity in mouse J774.A1 cells assessed as inhibition of LPS-induced IL6 secretion at 10 uM incubated for 2 followed by LPS stimulation and measured after 22 hrs by ELISA relative to control. It is filed as functional. The following applies: for Activity: time 24.0 hrs.
Series [3] concerns J774.A1. The experiment in a line: Cytotoxicity against mouse J774A.1 cells assessed as reduction in cell viability at 10 uM after 24 hrs by MTT assay. It is filed as cell-based. The following applies: j774.a1, 24 h. A general note: Tetrazolium assays rely on reduction of a dye to a coloured formazan, in cell work by metabolically active cells.
In series [4] the test system is Mus musculus. The experiment in a line: Antiinflammatory activity against C57BL/6 mouse model of LPS-induced acute lung injury assessed as reduction in alveolar septa thickening at 20 mg/kg, IG treated 0.5 hrs before LPS challenge by H and E staining based histopathological analysis. It counts as functional, organism-based.
The test system of series [5] is Mus musculus. The experiment in a line: Antiinflammatory activity against C57BL/6 mouse model of LPS-induced acute lung injury assessed as reduction in inflammatory infiltration at 20 mg/kg, IG treated 0.5 hrs before LPS challenge by H and E staining based histopathological analysis. It is filed as functional, organism-based.
The test system of series [6] is Mus musculus. The experiment in a line: Antiinflammatory activity against C57BL/6 mouse model of LPS-induced acute lung injury assessed as reduction in lung tissue destruction at 20 mg/kg, IG treated 0.5 hrs before LPS challenge by H and E staining based histopathological analysis. It counts as functional, organism-based.
The subject of series [7] is J774.A1. The experiment in a line: Antiinflammatory activity in mouse J774.A1 cells assessed as inhibition of LPS-induced TNF-alpha secretion incubated for 2 followed by LPS stimulation and measured after 22 hrs by ELISA. It counts as functional, cell-based.
In series [8] the test system is J774.A1. The experiment in a line: Antiinflammatory activity in mouse J774.A1 cells assessed as inhibition of LPS-induced IL6 secretion incubated for 2 followed by LPS stimulation and measured after 22 hrs by ELISA. It is filed as functional, cell-based.
Series [9] has as its system Mus musculus. The experiment in a line: Antiinflammatory activity in C57BL/6 mouse model of LPS-induced acute lung injury assessed as reduction in lung wet/dry ratio at 20 mg/kg, IG administered 30 mins prior to LPS instillation. It is filed as functional, organism-based.
Series [10] concerns Mus musculus. The experiment in a line: Anti-inflammatory activity against C57BL/6 mouse model of LPS-induced acute lung injury assessed as reduction in cell count in broncho alveolar lavage fluid at 20 mg/kg, IG treated 0.5 hrs before LPS stimulation by ELISA. It is filed as functional, organism-based.
The test system of series [11] is Mus musculus. The experiment in a line: Anti-inflammatory activity against C57BL/6 mouse model of LPS-induced acute lung injury assessed as reduction in TNF-alpha secretion in broncho alveolar lavage fluid at 20 mg/kg, IG treated 0.5 hrs before LPS stimulation by ELISA. It counts as functional, organism-based.
In series [12] the test system is Mus musculus. The experiment in a line: Anti-inflammatory activity against C57BL/6 mouse model of LPS-induced acute lung injury assessed as reduction in IL6 secretion in broncho alveolar lavage fluid at 20 mg/kg, IG treated 0.5 hrs before LPS stimulation by ELISA. It is filed as functional, organism-based.
The test system of series [13] is Mus musculus. The experiment in a line: Antiinflammatory activity against C57BL/6 mouse model of LPS-induced acute lung injury assessed as reduction in interstitial edema in lung tissue at 20 mg/kg, IG treated 0.5 hrs before LPS challenge by H and E staining based histopathological analysis. It counts as functional, organism-based.
For series [14], the system named is Mus musculus. The experiment in a line: Antiinflammatory activity against C57BL/6 mouse model of LPS-induced acute lung injury assessed as reduction in pulmonary congestion at 20 mg/kg, IG treated 0.5 hrs before LPS challenge by H and E staining based histopathological analysis. It counts as functional, organism-based.

Turning to `O=C(/C=C/c1ccc(O)c(O)c1)c1cc(OCCCN2CCCC2)ccc1O`, the outcome in the series on J774.A1 [1] and in the series with J774.A1 [2] was Active. Also, the Activity result with J774.A1 [3] was “Non-Toxic”.

On to `O=C(/C=C/c1ccc(O)c(O)c1)c1ccc(OCCCN2CCOCC2)cc1O`, for which the result in the series with J774.A1 [1] and with J774.A1 [2] was Active. The Activity entry in the series on J774.A1 [3] is reported as “Non-Toxic”.

`O=C(/C=C/c1ccc(O)c(O)c1)c1ccc(Br)cc1O`: the outcome in the series on J774.A1 [1] and with J774.A1 [2] was Active. Also, the Activity entry in the series on J774.A1 [3] is “Non-Toxic”.

As for `O=C(/C=C/c1ccc(O)c(O)c1)c1ccc(OCCN2CCCC2)cc1O`, the result in the series on J774.A1 [1] and in the series with J774.A1 [2] was Active. For the same compound, the Activity result in the series with J774.A1 [3] is given as “Non-Toxic”.

As for `O=c1c(O)c(-c2ccc(O)c(O)c2)oc2cc(Br)ccc12`, the outcome with J774.A1 [1] and with J774.A1 [2] was Active. For the same compound, in the series with J774.A1 [3], the Activity entry is given as “Non-Toxic”.

Regarding `COc1ccc2c(=O)c(O)c(-c3ccc(O)c(O)c3)oc2c1`, the result with J774.A1 [1] and with J774.A1 [2] was Active. Moreover, in the series on J774.A1 [3], the Activity result was “Non-Toxic”.

For orientation: inhibition means the drop in the measured response relative to a control, in per cent. One may read the IC50 as the concentration that gives 50% inhibition. Consider `CN(C)CCCOc1ccc(C(=O)/C=C/c2ccc(O)c(O)c2)c(O)c1`, for which the outcome in the series on Mus musculus [4], in the series with Mus musculus [5], with Mus musculus [6], in the series with Mus musculus [9], in the series with Mus musculus [10] and in the series with Mus musculus [11] was Active. The outcome in the series on Mus musculus [12], in the series with Mus musculus [13] and in the series on Mus musculus [14] was Active. For the same compound, the inhibition at 10 µM was determined as 76.4% in the series on J774.A1 [1] (time 24 hrs) and 89.6% with J774.A1 [2] (time 24 hrs). Moreover, in the series on J774.A1 [3], the Activity entry is given as “Non-Toxic”. In addition, the IC50 with J774.A1 [7] (J774.A1, 22 h) turned out to be 2.58 µM; in the series with J774.A1 [8] (J774.A1, 22 h) it was 8.25 µM. Further, the inhibition entry in the series on J774.A1 [7] (time 24.0 hrs) and with J774.A1 [8] (time 24.0 hrs) was “Dose-dependent effect” throughout.

Take `CN(C)CCCOc1ccc(O)c(C(=O)/C=C/c2ccc(O)c(O)c2)c1`: the result in the series on J774.A1 [1] and in the series on J774.A1 [2] was Active. For the same compound, the Activity result with J774.A1 [3] is listed as “Non-Toxic”.

Turning to `O=c1c(O)c(-c2ccc(O)c(O)c2)oc2cc(O)ccc12` [FISETIN], the result with J774.A1 [1], in the series with J774.A1 [2] and with Mus musculus [10] was Active. Moreover, the Activity result with J774.A1 [3] is recorded as “Non-Toxic”.

Turning to `O=C(/C=C/c1ccc(O)c(O)c1)c1cc(F)ccc1O`, the result in the series with J774.A1 [1] and in the series on J774.A1 [2] was Active. Further, the Activity result in the series on J774.A1 [3] was “Non-Toxic”.

As for `O=C(/C=C/c1ccc(O)c(O)c1)c1cc(OCCN2CCCC2)ccc1O`, the outcome with J774.A1 [1] and with J774.A1 [2] was Active. Moreover, the Activity entry in the series with J774.A1 [3] was “Non-Toxic”.

In the case of `O=C(/C=C/c1ccc(O)c(O)c1)c1ccc(OCCCN2CCCC2)cc1O`, the result in the series on J774.A1 [1] and in the series with J774.A1 [2] was Active. The Activity result in the series on J774.A1 [3] was “Non-Toxic”.

Turning to `O=c1c(O)c(-c2ccc(O)c(O)c2)oc2cc(F)ccc12`, the result in the series with J774.A1 [1] and in the series on J774.A1 [2] was Active. Moreover, in the series on J774.A1 [3], the Activity entry was “Non-Toxic”.

For `O=C(/C=C/c1ccc(O)c(O)c1)c1ccc([N+](=O)[O-])cc1O`, the result in the series on J774.A1 [1] and in the series on J774.A1 [2] was Active. The Activity entry in the series on J774.A1 [3] is “Non-Toxic”.

For `O=C(/C=C/c1ccc(O)c(O)c1)c1cc(OCCCN2CCCCC2)ccc1O`, the outcome in the series with J774.A1 [1] and in the series on J774.A1 [2] was Active. Also, the Activity entry in the series on J774.A1 [3] is given as “Non-Toxic”.

Consider `COc1ccc(C(=O)/C=C/c2ccc(O)c(O)c2)c(O)c1` [CALYTHROPSIN], for which the outcome in the series with J774.A1 [1] and in the series with J774.A1 [2] was Active. In addition, the Activity result with J774.A1 [3] was “Non-Toxic”.

On to `O=c1c(O)c(-c2ccc(O)c(O)c2)oc2ccc(F)cc12`, for which the result in the series with J774.A1 [1] and in the series with J774.A1 [2] was Active. For the same compound, the Activity entry with J774.A1 [3] is “Non-Toxic”.

For the compound `O=C(/C=C/c1ccc(O)c(O)c1)c1ccc(OCCN2CCOCC2)cc1O`, the result in the series with J774.A1 [1] and in the series on J774.A1 [2] was Active. Also, the Activity entry in the series on J774.A1 [3] is listed as “Non-Toxic”.

Regarding `O=C(/C=C/c1ccc(O)c(O)c1)c1cc(Br)ccc1O`, the result with J774.A1 [1] and with J774.A1 [2] was Active. Moreover, in the series on J774.A1 [3], the Activity entry is “Non-Toxic”.

In the case of `CN1CCN(CCCOc2ccc(O)c(C(=O)/C=C/c3ccc(O)c(O)c3)c2)CC1`, the outcome in the series on J774.A1 [1] and in the series on J774.A1 [2] was Active. For the same compound, the Activity entry in the series with J774.A1 [3] is recorded as “Non-Toxic”.

On to `O=C(/C=C/c1ccc(O)c(O)c1)c1cc(OCCCN2CCOCC2)ccc1O`, for which the result with J774.A1 [1] and in the series with J774.A1 [2] was Active. Besides, the Activity result with J774.A1 [3] is recorded as “Non-Toxic”.

`O=C(/C=C/c1ccc(O)c(O)c1)c1ccc(OCCCN2CCCCC2)cc1O`: the result in the series with J774.A1 [1] and in the series with J774.A1 [2] was Active. For the same compound, the Activity result in the series with J774.A1 [3] is “Non-Toxic”.

`O=C(/C=C/c1ccc(O)c(O)c1)c1cc(OCCN2CCOCC2)ccc1O`: the result in the series on J774.A1 [1] and in the series on J774.A1 [2] was Active. In the series with J774.A1 [3], the Activity entry is reported as “Non-Toxic”.

On to `COc1cc(O)c(C(=O)/C=C/c2ccc(O)c(O)c2)cc1OC`, for which the outcome with J774.A1 [1] and in the series with J774.A1 [2] was Active. Further, the Activity result with J774.A1 [3] is “Non-Toxic”.

In the case of `O=c1c(O)c(-c2ccc(O)c(O)c2)oc2ccc(Br)cc12`, the outcome with J774.A1 [1] and with J774.A1 [2] was Active. The Activity result in the series on J774.A1 [3] is listed as “Non-Toxic”.

For `O=C(/C=C/c1ccc(O)c(O)c1)c1ccc(F)cc1O`, the result in the series on J774.A1 [1] and in the series with J774.A1 [2] was Active. The Activity result in the series on J774.A1 [3] is “Non-Toxic”.
